# Experimental data taken from paper PMC10914731, “Homo-BacPROTAC-induced degradation of ClpC1 as a strategy against drug-resistant mycobacteria” (Nature Communications, 2024).
# Values joined by “and” are separate entries in the source; they are usually repeats but may differ in a detail not shown here. Equal entries are not always repeated. Where two headings read alike, the source gives them in different places.
# Experiments:
# [1] = type: in vitro ADME, Rat
# Msm 700084 = assay: microbe, parasite or virus in culture; type: cell-based
# [2] = type: in vitro ADME, Rat; remark: listed apart in the source
# How it was run: (§1)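 Read-out: parent loss by HPLC-MS/MS, first-order fit, half-life scaled to %Qh (well-stirred liver model). Conditions: 1 µmol/l cpd, 0.5 mg/ml microsomes, 100 mM Tris-HCl pH 7.5, 6.5 mM MgCl2, 1 mM NADPH, 37 °C; acetonitrile stop at multiple times.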
# [3] = target: His6-tagged ClpC1-NTD substrate, M. smegmatis ClpC1P1P2 (UniProt A0R574+P9WPC9); assay: biochemical; type: biochemical
# Sequence of His6-tagged ClpC1-NTD substrate, M. smegmatis ClpC1P1P2 (P9WPC9 1-156, looked up, natural form): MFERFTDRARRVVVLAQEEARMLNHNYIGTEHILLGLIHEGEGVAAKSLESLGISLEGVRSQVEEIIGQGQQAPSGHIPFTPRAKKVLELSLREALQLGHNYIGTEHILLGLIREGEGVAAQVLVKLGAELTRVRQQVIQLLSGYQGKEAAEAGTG
# Sequence of His6-tagged ClpC1-NTD substrate, M. smegmatis ClpC1P1P2 (A0R574 whole entry): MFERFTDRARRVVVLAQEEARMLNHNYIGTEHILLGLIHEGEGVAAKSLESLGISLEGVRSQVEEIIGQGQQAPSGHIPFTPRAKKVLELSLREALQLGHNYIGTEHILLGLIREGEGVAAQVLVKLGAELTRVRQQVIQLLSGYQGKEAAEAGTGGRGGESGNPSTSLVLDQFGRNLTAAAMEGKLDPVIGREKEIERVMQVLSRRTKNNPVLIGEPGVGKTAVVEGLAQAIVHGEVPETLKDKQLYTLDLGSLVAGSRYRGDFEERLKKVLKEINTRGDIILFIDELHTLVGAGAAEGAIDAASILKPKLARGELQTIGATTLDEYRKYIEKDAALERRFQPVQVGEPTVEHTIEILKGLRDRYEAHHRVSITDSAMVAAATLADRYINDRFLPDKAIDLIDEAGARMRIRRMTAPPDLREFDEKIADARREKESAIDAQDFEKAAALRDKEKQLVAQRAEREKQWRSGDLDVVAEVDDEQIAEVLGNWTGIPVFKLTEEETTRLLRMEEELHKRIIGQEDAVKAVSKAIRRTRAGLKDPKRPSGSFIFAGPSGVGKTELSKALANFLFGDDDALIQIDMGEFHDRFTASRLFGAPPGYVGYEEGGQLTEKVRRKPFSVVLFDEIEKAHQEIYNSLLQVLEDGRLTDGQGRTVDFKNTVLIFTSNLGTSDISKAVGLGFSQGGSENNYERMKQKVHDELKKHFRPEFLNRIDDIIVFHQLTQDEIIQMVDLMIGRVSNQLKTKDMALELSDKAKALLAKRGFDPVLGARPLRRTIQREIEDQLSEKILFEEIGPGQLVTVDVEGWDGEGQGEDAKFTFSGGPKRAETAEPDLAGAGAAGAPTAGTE
# [4] = Microsomal stability, human; type: in vitro ADME
# How it was run: as §1
# Salmonella typhimurium = assay: MIC ESKAPES panel, Salmonella typhimurium; type: cell-based
# Protocol: (§2) Minimum inhibitory concentration (MIC) against ESKAPES panel of Gram positive and Gram negative pathogens (Enterococcus faecium, Staphylococcus aureus, Klebsiella pneumoniae, Acinetobacter baumannii, Pseudomonas aeruginosa, Enterobacter cloacae and Salmonella typhimurium [ESKAPES panel]) were determined at the FNDR by the standard broth dilution method [CLSI, M100]. […] Mueller Hinton broth (MHB) medium was used to grow ESKAPES panel strains. The individual cultures were added as 200 μL (inoculum of 3–7 × 10^5 cfu/ml) to the respective assay plates in each well to all columns, except the media control (200 μL of medium). […] The assay plates were incubated at 37 °C, and the results were noted on the 2nd day as turbidometric readout. The clear wells indicated inhibition of growth, while the turbid wells indicated uninhibited growth.
# Mycobacterium fortuitum = assay: microbe, parasite or virus in culture; type: cell-based
# Enterobacter cloacae = assay: MIC ESKAPES panel, Enterobacter cloacae; type: cell-based
# Protocol: as §2
# Mycobacterium avium = assay: microbe, parasite or virus in culture; type: cell-based
# Acinetobacter baumannii = assay: MIC ESKAPES panel, Acinetobacter baumannii; type: cell-based
# Protocol: as §2
# [5] = system: Mycobacterium intracellulare; assay: microbe, parasite or virus in culture; type: cell-based
# [6] = Mycolicibacterium smegmatis, 700084, read-out: MIC Msm 700084
# [7] = Gram-Negative Bacteria, replicates 1-3, listed as 12 (UdSBI-4377)
# [8] = Salmonella enterica, TYPHIMURIUM, Gram negative, n = 3 well replicates
# [9] = Salmonella enterica, TYPHIMURIUM, Gram-Negative Bacteria, replicates 1-3
# [10] = Experiment 2, three replicate columns
# [11] = Experiment 2, three replicate columns, read-out: MIC (µM) Mycobacterium fortuitum
# [12] = Mycolicibacterium fortuitum, Experiment 1, read-out: MIC Mycobacterium fortuitum
# [13] = Mycolicibacterium fortuitum, Experiment 2, three replicate columns, read-out: MIC (µM) Mycobacterium fortuitum
# [14] = Mycolicibacterium fortuitum, Experiment 2, three replicate columns, read-out: MIC (µg/ml) Mycobacterium fortuitum
# [15] = Mycolicibacterium fortuitum, mean ± SD, read-out: MIC Mycobacterium fortuitum
# [16] = Enterobacter cloacae, Gram negative, n = 3 well replicates
# [17] = Enterobacter cloacae, Gram-Negative Bacteria, replicates 1-3
# [18] = Experiment 2, three replicate columns, read-out: MIC (µM) Mycobacterium avium
# [19] = Mycobacterium avium, Experiment 1, read-out: MIC Mycobacterium avium
# [20] = Mycobacterium avium, Experiment 2, three replicate columns, read-out: MIC (µM) Mycobacterium avium
# [21] = Mycobacterium avium, Experiment 2, three replicate columns, read-out: MIC (µg/ml) Mycobacterium avium
# [22] = Mycobacterium avium, mean ± SD, read-out: MIC Mycobacterium avium
# [23] = Gram negative, n = 3 well replicates, read-out: MIC Acinetobacter baumanii
# [24] = Gram-Negative Bacteria, replicates 1-3, read-out: MIC Acinetobacter baumannii
# [25] = Experiment 2, three replicate columns, read-out: MIC (µM) Mycobacterium intracellulare
# [26] = Mycobacterium intracellulare, Experiment 1, read-out: MIC Mycobacterium intracellulare
# [27] = Mycobacterium intracellulare, Experiment 2, three replicate columns, read-out: MIC (µM) Mycobacterium intracellulare
# [28] = Mycobacterium intracellulare, Experiment 2, three replicate columns, read-out: MIC (µg/ml) Mycobacterium intracellulare
# [29] = Mycobacterium intracellulare, mean ± SD, read-out: MIC Mycobacterium intracellulare
Structure (SMILES),MIC (Msm 700084; [6]),MIC (Salmonella typhimurium; [8]),MIC (Salmonella typhimurium; [9]),MIC (µg/ml) Mycobacterium fortuitum (Mycobacterium fortuitum; [10]),MIC (Mycobacterium fortuitum; [11]),MIC (Mycobacterium fortuitum; [12]),MIC (Mycobacterium fortuitum; [13]),MIC (Mycobacterium fortuitum; [14]),MIC (Mycobacterium fortuitum; [15]),MIC (Enterobacter cloacae; [16]),MIC (Enterobacter cloacae; [17]),MIC (µg/ml) Mycobacterium avium (Mycobacterium avium; [10]),MIC (Mycobacterium avium; [18]),MIC (Mycobacterium avium; [19]),MIC (Mycobacterium avium; [20]),MIC (Mycobacterium avium; [21]),MIC (Mycobacterium avium; [22]),MIC (Acinetobacter baumannii; [23]),MIC (Acinetobacter baumannii; [24]),"MIC (µg/ml) Mycobacterium intracellulare [5, 10]",further results
CO[C@H](c1ccccc1)[C@@H]1NC(=O)[C@H](C)NC(=O)[C@H](C[C@@H](C)CO)N(C)C(=O)[C@H](Cc2cn(Cc3cn(CCOCCn4cc(Cn5cc(C[C@@H]6NC(=O)[C@H](C(C)C)NC(=O)[C@H](CC(C)C)N(C)C(=O)[C@H](C(C)C)NC(=O)[C@H]([C@H](OC)c7ccccc7)NC(=O)[C@H](C)NC(=O)[C@H](C[C@@H](C)CO)N(C)C6=O)c6ccccc65)nn4)nn3)c3ccccc23)NC(=O)[C@H](C(C)C)NC(=O)[C@H](CC(C)C)N(C)C(=O)[C@H](C(C)C)NC1=O [Compound 6],20.8 ± 15.1 µM,,,,,,,,,,,,,,,,,,,,"Hepatocyte Rat ([1]; clearance in hepatocytes): 6 %Qh; Microsomal Stability Rat QH ([2]; Rat): <23.100%; Microsomal Stability Rat ([2]; clearance in microsomes): < 23 %Qh; 1-Dmax, single measurements ([3]; Msm, Measurement 1-6): 73.6% and 67.7% and 87.3%; 1-Dmax (percent substrate remaining at maximal degradation) ([3]; Msm, Measurement 1-6, read-out: 1-Dmax, single measurements): 83.7%; 1-Dmax (percent substrate remaining at maximal degradation) ([3]; Msm, mean of the measurements, read-out: 1-Dmax, Mean): 78%; DC50 ([3]; Msm, mean of the measurements, read-out: DC50, Mean): 7.5 µM; Microsomal Stability Human QH ([4]; Human): 69.600%; Microsomal Stability Human ([4]; clearance in microsomes): 70 %Qh"
COC(c1ccccc1)C1NC(=O)C(C)NC(=O)C(CC(C)CO)N(C)C(=O)C(Cc2cn(C)c3ccccc23)NC(=O)C(Cc2cn(CCCCCn3cc(CC4NC(=O)C(CC(C)C)N(C)C(=O)C(C(C)C)NC(=O)C(C(OC)c5ccccc5)NC(=O)C(C)NC(=O)C(CC(C)CO)N(C)C(=O)C(Cc5cn(C)c6ccccc56)NC4=O)nn3)nn2)NC(=O)C(CC(C)C)N(C)C(=O)C(C(C)C)NC1=O (stereo not shown) [Compound 12],> 50 µM,> 50 µM,> 99 µg/mL,>99.02 µg/mL,>50 µM,> 99 µg/mL,> 50 µM,> 99 µg/mL,> 50 µM,> 50 µM,> 99 µg/mL,>99.02 µg/mL,>50 µM,> 99 µg/mL,> 50 µM,> 99 µg/mL,> 50 µM,> 50 µM,> 50 µM and > 99 µg/mL,>99.02 µg/mL,"MIC (Salmonella typhimurium; [7]): >50 µM; Hepatocyte Rat ([1]; rat, pH 7.4): 6 %Qh; MIC (Msm 700084; Mycolicibacterium smegmatis, 700084, single determinations, read-out: Msm 700084 MIC): > 50 µM; Microsomal Stability Rat ([2]; rat, microsomes, pH 7.5): < 23 %Qh; Microsomal Stability Rat QH ([2]; rat, microsomes, pH 7.5): <23.1%; MIC (Mycobacterium fortuitum; Experiment 1, listed as 12 (UdSBI-4377), read-out: MIC Mycobacterium fortuitum): >50 µM; MIC (Enterobacter cloacae; [7]): >50 µM; DC50 ([3]; read-out: DC50, single measurements): 10.3 µM and 9.3 µM and 5.3 µM and 8.3 µM and 7.6 µM; DC50 ([3]; read-out: DC50 M.smegmatis ClpC1P1P2 Mean): 8.4 µM; Dmax ([3]; read-out: DMax M.smegmatis ClpC1P1P2 Mean): 81%; MIC (Mycobacterium avium; Experiment 1, listed as 12 (UdSBI-4377), read-out: MIC Mycobacterium avium): >50 µM; Microsomal Stability Human ([4]; human, microsomes, pH 7.5): < 24 %Qh; Microsomal Stability Human QH ([4]; human, microsomes, pH 7.5): <24.4%; MIC ([5]; Experiment 1, listed as 12 (UdSBI-4377), read-out: MIC Mycobacterium intracellulare): >50 µM; MIC [5, 25]: >50 µM; MIC [5, 26]: > 99 µg/mL; MIC [5, 27]: > 50 µM; MIC [5, 28]: > 99 µg/mL; MIC [5, 29]: > 50 µM"
"COc1c(N2C[C@@H]3CCCN[C@@H]3C2)c(F)cc2c(=O)c(C(=O)O)cn(C3CC3)c12 [Moxifloxacin, reference compound]",,0.6 µM,0.62 µM and 0.25 µg/mL,0.06 µg/mL,0.15 µM,0.0747 µM and 0.03 µg/mL,0.15 µM,0.06 µg/mL,0.1 µM,0.3 µM,0.31 µM and 0.125 µg/mL,1 µg/mL,2.49 µM,2.49 µM and 1 µg/mL,2.49 µM,1 µg/mL,2.5 µM,0.3 µM,0.31 µM and 0.125 µg/mL,0.50 µg/mL,"MIC [5, 25]: 1.25 µM; MIC [5, 26]: 1.25 µM and 0.5 µg/mL; MIC [5, 27]: 1.25 µM; MIC [5, 28]: 0.5 µg/mL; MIC [5, 29]: 1.2 µM"
